Results taken from publication PMC4669382 (mBio, 2015).

Test system: Bar1(D232A)
Assay: 127 nM Bar1
Settings: C. albicans, 37°C, up to 1 h

not cleaved | Substance
no cleavage products were generated | GFRLTNFGYFEPG

Test system: C. albicans Bar1
Assay: Bar1 activity on bovine serum albumin
Format: biochemical, Candida albicans
Settings: tested at high protein concentrations, data not shown

Substance | Bar1 activity on protein substrate
bovine serum albumin: bovine serum albumin tested as a Bar1 substrate | no detectable activity

Test system: S. cerevisiae Bar1
Assay: not given
Settings: cited from earlier work

Substance | sensitivity of S. cerevisiae Bar1 to inhibitor
pepstatin A | insensitive

Test system: Bar1(D232A)
Assay: 60 nM Bar1
Settings: C. albicans, 37°C, up to 90 min

not cleaved | Substance
no detectable cleavage activity | GFRLTNFGYFEPG

Test system: C. albicans Bar1
Assay: 127 nM C. albicans Bar1 in 50 µM potassium phosphate solution
Settings: 37°C, up to 24 h

cleaved bond | not cleaved | Substance
Thr5-Asn6, 1 h |  | KFKLTNFGYFEPG
threonine5-asparagine6, major, 1 h |  | GFRLTNFGYFEPG
 | no products were detected | GFRLTNFGAAEPG
T5-N6, 1 h |  | GFRLTNAAYFEPG
 | no products were detected | GFRLTNFGYAAPG
 | no products were detected | GFRLTNFGYEAAG
T5-N6, 1 h |  | GAALTNFGYFEPG
T5-N6, 1 h |  | GFRLTNFAAFEPG
T5-N6, 1 h |  | AARLTNFGYFEPG
T5-N6, 1 h |  | GFAATNFGYFEPG
A5-N6, 1 h |  | GFRAANFGYFEPG
T5-A6, 1 h |  | GFRLTAAGYFEPG
A5-A6, 1 h |  | GFRLAAFGYFEPG
 | no products were detected | GFRLTNFGYFEAA
